We go through 23 compounds from patent US20220096379A1, “SELF-EMULSIFYING DRUG FORMULATION FOR IMPROVING MEMBRANE PERMEABILITY OF COMPOUND” (Chugai Seiyaku Kabushiki Kaisha, priority 2016, published 2022).

SMILES strings stand for the structures. Where two headings read alike, the source gives them in different places. Starred links: 1 amine or outer side, 2 acyl side, 3 side chain; linkers in the order of their positions; H or OH if unused. Positions of bridges follow the written chain, without caps; N, C: chain ends. Non-standard residues stand in square brackets, D forms with d. Residues, ends and D or L forms follow the SMILES beside them. *: point of attachment. NMeF = CN[C@@H](Cc1ccccc1)C(=O)O; NMeI = CC[C@H](C)[C@H](NC)C(=O)O; NMeβAla = CN(CCC(=O)[*:2])[*:1]; NMeL = CN[C@@H](CC(C)C)C(=O)O; NMeA = CN[C@@H](C)C(=O)O; Piperidide = C1CCN(*)CC1; Sar = CNCC(=O)O; tBu = CC(C)(C)*

Data set [1] can be described thus: Log D (pH 7.4) measurement, n-octanol/buffer. Particulars: n-octanol/pH 7.4 buffer.
Experimental: (§1) A two-phase separated solution of n-octanol and a pH 7.4 buffer was prepared, a DMSO solution of the drug was added to the prepared two-phase-separated solution. After shaking (room temperature, 1800 rpm, two hours), the solution was centrifuged (3000 rpm, ten minutes), only the buffer fractions were collected, and drug concentrations in the buffer fractions were measured by LC/MS. Log D (pH 7.4) was calculated from the measured drug concentrations.
Data set [2] in a line: Caco-2 membrane permeability evaluation (improved method, 20-24 h pre-incubation, 96-well). Type of data set: in vitro ADME. To be noted: human; for Papp at 180 min: commercially available middle molecular weight compounds; for Papp A→B at 180 min: cyclic peptides, pre-incubation 20-24 h, apical pH 6.0, basal pH 7.4 4% BSA.
Experimental: After Caco-2 cells were cultured on a 96-well transwell for three weeks, DMEM+FaSSIF (1% DMSO)+the compound was added to the Apical side and DMEM was added to the Basal side, and this was pre-incubated under 5% CO2 at 37° C. and 80 rpm for 20 hours to 24 hours. After pre-incubation, the pre-incubation solutions on the Apical and Basal sides were removed by aspiration and washed, a permeability test was initiated by adding FaSSIF/HBSS buffer (pH 6.0) containing the compound to the Apical side and HBSS buffer (pH 7.4) containing 4% BSA to the Basal side. Each well was shaken under 5% CO2, at 37° C. and 80 rpm. […] The permeability coefficient was calculated from the amount of permeation.
More specifically, after Caco-2 cells were cultured on a 96-well transwell for three weeks, DMEM+FaSSIF (1% DMSO)+the compound was added to the Apical side and DMEM was added to the Basal side, and this was pre-incubated at 5% CO2, 37° C., and 80 rpm for 20 hours to 24 hours. After pre-incubation, the pre-incubation solutions on the Apical side and on the Basal side were removed by aspiration and washed, FaSSIF/HBSS buffer (1% DMSO) (pH 6.0) containing the compound was added to the Apical side, and HBSS buffer (4% BSA) (pH 7.4) was added to the Basal side, and membrane permeability assays were initiated. […] From the amount of permeation, the membrane permeability coefficient (Papp) was calculated.
A short description of data set [3]: physchem. Particulars: pH 7.4.
Experimental: as §1
For data set [4] the following is noted: cited from earlier work.
Data set [5] has as its system Caco-2 cells. To be noted: cited from earlier work; for decrease in the concentration on the Apical side: 120 minutes of incubation.

Consider `C[C@@H]1[C@H](O)[C@@H](C)/C=C/C=C/C=C/C=C/C=C/C=C/C=C/[C@H](O[C@@H]2O[C@H](C)[C@@H](O)[C@H](N)[C@@H]2O)C[C@@H]2O[C@](O)(C[C@@H](O)C[C@@H](O)[C@H](O)CC[C@@H](O)C[C@@H](O)CC(=O)O[C@H]1C)C[C@H](O)[C@H]2C(=O)O` [AmphotericinB], for which the logD in data set [1] was determined as 0.11. The Papp at 180 min in data set [2] amounted to 0.0736 ×10⁻⁶ cm/s.

Take `CC[C@H]1OC(=O)[C@H](C)[C@@H](O[C@H]2C[C@@](C)(OC)[C@@H](O)[C@H](C)O2)[C@H](C)[C@@H](O[C@@H]2O[C@H](C)C[C@H](N(C)C)[C@H]2O)[C@](C)(O)C[C@@H](C)CN(C)[C@H](C)[C@@H](O)[C@]1(C)O` [Azithromycin]: the logD in data set [1] is 0.62. The same compound showed a Papp at 180 min in data set [2] of 0.515 ×10⁻⁶ cm/s.

`CC[C@H](C)[C@H]1C(=O)N(C)[C@@H](C)C(=O)N(C)[C@@H](Cc2ccccc2)C(=O)N[C@@H]([C@@H](C)O)C(=O)N(C)[C@@H](Cc2ccccc2)C(=O)N(C)[C@@H](CC(C)C)C(=O)N2CCC[C@H]2C(=O)N[C@H](C(=O)N2CCCCC2)CC(=O)N[C@@H](C)C(=O)NCC(=O)N(C)[C@@H](CC(C)C)C(=O)N1C` [Compound (1)] (AG[NMeL][NMeI][NMeA][NMeF]T[NMeF][NMeL]PD-Piperidide; lactam N-11): the logD at 2 h in data set [3] is 5.19. For the same compound, the “intrinsic hepatic clearance CLh int” value in data set [4] (human liver microsomes) is on record as 74 μL/min/mg protein. In addition, the apparent permeability from apical to basolateral (Papp A→B) at 180 min in data set [2] amounted to 0.262 ×10⁻⁶ cm/s.

`CC[C@H](C)[C@H]1C(=O)N[C@@H](COC(C)(C)C)C(=O)N[C@H](C(=O)N2CCCCC2)CC(=O)N(C)[C@@H](C)C(=O)N(C)[C@@H](Cc2ccccc2)C(=O)N(C)CC(=O)N(C)[C@@H](CC(C)C)C(=O)N[C@@H]([C@@H](C)O)C(=O)N(C)[C@@H](C)C(=O)N(C)[C@@H](CC(C)C)C(=O)N1C` [Compound (2)] ([NMeA][NMeF][Sar][NMeL]T[NMeA][NMeL][NMeI]S(tBu)D-Piperidide; lactam N-10): the logD at 2 h in data set [3] stood at 4.43. Also, the “intrinsic hepatic clearance CLh int” value in data set [4] (human liver microsomes) is on record as 48 μL/min/mg protein.

`CC[C@H](C)[C@H]1C(=O)N[C@H](C(=O)N2CCCCC2)CC(=O)N[C@H](C(C)C)C(=O)N(C)[C@@H](CC(C)C)C(=O)N(C)[C@@H](Cc2ccccc2)C(=O)N(C)[C@@H](C)C(=O)N[C@@H]([C@@H](C)O)C(=O)N(C)CC(=O)N(C)[C@@H](CC(C)C)C(=O)N[C@@H](COC(C)(C)C)C(=O)N1C` [Compound (3)] ([dV][NMeL][NMeF][NMeA]T[Sar][NMeL]S(tBu)[NMeI]D-Piperidide; lactam N-10): the logD at 2 h in data set [3] came out at 4.18. Also, the “intrinsic hepatic clearance CLh int” value in data set [4] (human liver microsomes) was 46 μL/min/mg protein. The apparent permeability from apical to basolateral (Papp A→B) at 180 min in data set [2] is 0.249 ×10⁻⁶ cm/s.

The compound `CC(C)C[C@@H]1NC(=O)[C@H](Cc2ccccc2)N(C)C(=O)[C@H](Cc2ccccc2)N(C)C(=O)[C@H](CC(C)C)NC(=O)[C@H](C)N(C)C(=O)[C@H]([C@@H](C)O)NC(=O)[C@H](C)N(C)C(=O)C[C@@H](C(=O)N2CCCCC2)NC(=O)[C@H](CC(C)C)N(C)C1=O` [Compound (4)] ([NMeA]T[NMeA]L[NMeF][NMeF]L[NMeL]D-Piperidide; lactam N-9) returned a pH-dependent lipophilicity (logD) at 2 h in data set [1] of 5.17. In data set [4] (human liver microsomes), the “intrinsic hepatic clearance CLh int” value was 189 μL/min/mg protein. This compound returned an apparent permeability from apical to basolateral (Papp A→B) at 180 min in data set [2] of 4.14 ×10⁻⁶ cm/s.

`CC[C@H](C)[C@H]1C(=O)N[C@H](C(=O)N2CCCCC2)CC(=O)N[C@H](C(C)C)C(=O)N(C)[C@@H](Cc2ccccc2)C(=O)N(C)[C@@H](CC(C)C)C(=O)N[C@@H]([C@@H](C)O)C(=O)N(C)CC(=O)N(C)[C@@H](CC(C)C)C(=O)N[C@@H](COC(C)(C)C)C(=O)N1C` [Compound (5)] ([dV][NMeF][NMeL]T[Sar][NMeL]S(tBu)[NMeI]D-Piperidide; lactam N-9) had a logD at 2 h in data set [1] of 4.31. In addition, the “intrinsic hepatic clearance CLh int” value in data set [4] (human liver microsomes) is reported as 58 μL/min/mg protein. Also, the apical-to-basolateral permeability (Papp A→B) at 180 min in data set [2] was 1.85 ×10⁻⁶ cm/s.

As to `CC(C)C[C@H]1C(=O)N(C)[C@@H](CC(C)C)C(=O)N[C@H](C(=O)N2CCCCC2)CC(=O)N(C)CCC(=O)N(C)[C@@H](Cc2ccccc2)C(=O)N[C@@H]([C@@H](C)O)C(=O)N(C)CC(=O)N[C@@H](COC(C)(C)C)C(=O)N1C` [Compound (6)] ([NMeβAla][NMeF]T[Sar]S(tBu)[NMeL][NMeL]D-Piperidide; lactam N-8), the logD at 2 h in data set [3] amounted to 3.19. For the same compound, the “intrinsic hepatic clearance CLh int” value in data set [4] (human, microsomes) is 86 μL/min/mg protein.

The compound `C[C@H]1O[C@@H](O[C@H]2[C@@H](O)C[C@H](O[C@H]3[C@@H](O)C[C@H](O[C@H]4CC[C@@]5(C)[C@H](CC[C@@H]6[C@@H]5C[C@@H](O)[C@]5(C)[C@@H](C7=CC(=O)OC7)CC[C@]65O)C4)O[C@@H]3C)O[C@@H]2C)C[C@H](O)[C@@H]1O` [Digoxin] yielded a Papp at 180 min in data set [2] of 0.264 ×10⁻⁶ cm/s.

For `CC[C@H]1OC(=O)[C@H](C)[C@@H](O[C@H]2C[C@@](C)(OC)[C@@H](O)[C@H](C)O2)[C@H](C)[C@@H](O[C@@H]2O[C@H](C)C[C@H](N(C)C)[C@H]2O)[C@](C)(O)C[C@@H](C)C(=O)[C@H](C)[C@@H](O)[C@]1(C)O` [Erythromycin], in data set [1], the log distribution coefficient (logD) stood at 0.89. In addition, in data set [2], the Papp at 180 min came out at 0.382 ×10⁻⁶ cm/s.

Consider `CCC(C)n1ncn(-c2ccc(N3CCN(c4ccc(OCC5COC(Cn6cncn6)(c6ccc(Cl)cc6Cl)O5)cc4)CC3)cc2)c1=O` (stereo not drawn) [Itraconazole], for which, in data set [1], the pH-dependent lipophilicity (logD) was 4.29. Further, the Papp at 180 min in data set [2] is 1.06 ×10⁻⁶ cm/s.

Compound `CC(=O)O[C@H]1C(=O)[C@@]2(C)[C@H]([C@H](OC(=O)c3ccccc3)[C@]3(O)C[C@H](OC(=O)[C@H](O)[C@@H](NC(=O)c4ccccc4)c4ccccc4)C(C)=C1C3(C)C)[C@]1(OC(C)=O)CO[C@@H]1C[C@@H]2O` [Paclitaxel] came in with a pH-dependent lipophilicity (logD) in data set [1] of 3.36. The Papp at 180 min in data set [2] came out at 0.138 ×10⁻⁶ cm/s.

In data set [1], `CO[C@H]1C[C@@H]2CC[C@@H](C)[C@@](O)(O2)C(=O)C(=O)N2CCCC[C@H]2C(=O)O[C@H]([C@H](C)C[C@@H]2CC[C@@H](O)[C@H](OC)C2)CC(=O)[C@H](C)/C=C(\C)[C@@H](O)[C@@H](OC)C(=O)[C@H](C)C[C@H](C)/C=C/C=C/C=C/1C` [Rapamycin] returned a log distribution coefficient (logD) of 4.36. For the same compound, in data set [2], the apparent permeability coefficient (Papp) at 180 min worked out at 1.84 ×10⁻⁶ cm/s.

Regarding `CO[C@H]1/C=C/O[C@@]2(C)Oc3c(C)c(O)c4c(c3C2=O)C2=NC3(CCN(CC(C)C)CC3)NC2=C(NC(=O)/C(C)=C\C=C\[C@H](C)[C@H](O)[C@@H](C)[C@@H](O)[C@@H](C)[C@H](OC(C)=O)[C@@H]1C)C4=O` [Rifabutin], in data set [1], the logD was 3.88. Further, the Papp at 180 min in data set [2] worked out at 1.08 ×10⁻⁶ cm/s.

Compound `CO[C@H]1/C=C/O[C@@]2(C)Oc3c(C)c(O)c4c(O)c(c(/C=N/N5CCN(C)CC5)c(O)c4c3C2=O)NC(=O)/C(C)=C\C=C\[C@H](C)[C@H](O)[C@@H](C)[C@@H](O)[C@@H](C)[C@H](OC(C)=O)[C@@H]1C` [Rifampicin] returned a pH-dependent lipophilicity (logD) in data set [1] of 1.61. In data set [2], this compound registered a Papp at 180 min of 1.73 ×10⁻⁶ cm/s.

Compound `CO[C@H]1/C=C/O[C@@]2(C)Oc3c(C)c(O)c4c(O)c(c(/C=N/N5CCN(C6CCCC6)CC5)c(O)c4c3C2=O)NC(=O)/C(C)=C\C=C\[C@H](C)[C@H](O)[C@@H](C)[C@@H](O)[C@@H](C)[C@H](OC(C)=O)[C@@H]1C` [Rifapentine] came in with a log distribution coefficient (logD) in data set [1] of 2.45. This compound also displayed an apparent permeability coefficient (Papp) at 180 min in data set [2] of 5.12 ×10⁻⁶ cm/s.

Regarding `CC(C)c1nc(CN(C)C(=O)N[C@H](C(=O)N[C@@H](Cc2ccccc2)C[C@H](O)[C@H](Cc2ccccc2)NC(=O)OCc2cncs2)C(C)C)cs1` [Ritonavir], the logD in data set [1] is 4.29. Also, the Papp at 180 min in data set [2] turned out to be 1.74 ×10⁻⁶ cm/s.

In data set [1], `CC[C@H]1OC(=O)[C@H](C)[C@@H](O[C@H]2C[C@@](C)(OC)[C@@H](O)[C@H](C)O2)[C@H](C)[C@@H](O[C@@H]2O[C@H](C)C[C@H](N(C)C)[C@H]2O)[C@](C)(O)C[C@@H](C)/C(=N\OCOCCOC)[C@H](C)[C@@H](O)[C@]1(C)O` [Roxithromycin] gave a log distribution coefficient (logD) of 2.04. The compound also displayed a Papp at 180 min in data set [2] of 0.108 ×10⁻⁶ cm/s.

`C=CC[C@@H]1/C=C(\C)C[C@H](C)C[C@H](OC)[C@H]2O[C@@](O)(C(=O)C(=O)N3CCCC[C@H]3C(=O)O[C@H](/C(C)=C/[C@@H]3CC[C@@H](O)[C@H](OC)C3)[C@H](C)[C@@H](O)CC1=O)[C@H](C)C[C@@H]2OC` [Tacrolimus] gave a pH-dependent lipophilicity (logD) in data set [1] of 4.19. This compound also came in with an apparent permeability coefficient (Papp) at 180 min in data set [2] of 2.48 ×10⁻⁶ cm/s.

Take `CC[C@H]1OC(=O)[C@H](C)C(=O)[C@H](C)[C@@H](O[C@@H]2O[C@H](C)C[C@H](N(C)C)[C@H]2O)[C@](C)(OC)C[C@@H](C)C(=O)[C@H](C)[C@H]2N(CCCCn3cnc(-c4cccnc4)c3)C(=O)O[C@]12C` [Telithromycin]: in data set [1], the logD came to 2.1. In data set [2], this compound had a Papp at 180 min of 0.319 ×10⁻⁶ cm/s.

Compound `CCC1=C[C@@H]2CN(C1)Cc1c([nH]c3ccccc13)[C@@](C(=O)OC)(c1cc3c(cc1OC)N(C)[C@H]1[C@@](O)(C(=O)OC)[C@H](OC(C)=O)[C@]4(CC)C=CCN5CC[C@]31[C@@H]54)C2` [Vinorelbine] gave a log distribution coefficient (logD) in data set [1] of 2.82. Besides, in data set [2], the Papp at 180 min was 0.0903 ×10⁻⁶ cm/s.

Take `COCCc1ccc(OCC(O)CNC(C)C)cc1` (stereo not drawn) [metoprolol]: the “decrease in the concentration on the Apical side” value in data set [5] is listed as “approximately 20%”.

Regarding `CC(C)NCC(O)COc1cccc2ccccc12` (stereo not drawn) [propranolol], in data set [5], the “decrease in the concentration on the Apical side” value is listed as “approximately 40%” and the “added drug distributed in the cells after completion of incubation” value was “approximately 8%”.
